The values that follow come from patent US7790196B2, “Extracellular vesicles from non-pathogenic amoebae useful as vehicle for transferring a molecule of interest to an eukaryotic cell” (Universite Pierre et Marie Curie- Paris VI, priority 2003, dated 2010).

Series [1] has as its system Dd cells. Put plainly: Vesicle-mediated release of cargo molecule from Dd cells (micro-spectrofluorimetry of “12,000” vesicles). It counts as cell-based, Dictyostelium discoideum. The method, then: The capacity of Dd cells to internalise different exogenous molecules was studied. Further, their ability to release vesicles, in particular the “12,000” vesicles, carrying a broad-spectrum of molecules of interest was assessed. Flow cytometry and micro-spectrofluorimetry were used to measure respectively the cell internalisation and the vesicle-mediated release of the fluorescent cargo molecule as a function of incubation time in the growth medium. Growing Dd cells were incubated for different periods of time up to 72 h in the presence of the exogenous molecule. Fractions of the cells were fixed in 2% paraformaldehyde after each one of these increasing incubation times. Simultaneously, the externalised “12,000” vesicles were prepared from aliquots of the growth medium and concentrated (×20). As controls, Dd cells were grown in parallel without the cargo molecule and handled the same. Moreover, cell counting during growth allowed to check for any cytotoxicity of the studied molecule as a function of time. Cell and vesicle samples were kept at 4° C. until measurements.

The next series concerns Leukemic K562 cells. To be noted: Asahi et al., 1995; cited from earlier work.
Series [2] concerns Dd cells. Put plainly: Cytotoxicity of the cargo molecule towards growing Dd cells (cell counting during growth). It counts as cell-based, Dictyostelium discoideum. As to the method: The growth curve of Dd cells, continuously maintained with HO342 (10 μg/ml) since the initiation of the culture at a density of 3×10^6 cells/ml is shown on FIG. 3a. Images of Dd cells, fixed in 70% MeOH at different times (from 72 h to 216 h), show the aspect of the cells and of their HO342 stained nuclei. Apoptosis might increase as a function of time along the stationary plateau (Tatischeff et al., 2001), and the characteristic much smaller size of apoptotic cells were predominant for the t′216 fixed Dd cells (FIG. 3a).
The capacity of Dd cells to internalise different exogenous molecules was studied. Further, their ability to release vesicles, in particular the “12,000” vesicles, carrying a broad-spectrum of molecules of interest was assessed. Flow cytometry and micro-spectrofluorimetry were used to measure respectively the cell internalisation and the vesicle-mediated release of the fluorescent cargo molecule as a function of incubation time in the growth medium. Growing Dd cells were incubated for different periods of time up to 72 h in the presence of the exogenous molecule. Fractions of the cells were fixed in 2% paraformaldehyde after each one of these increasing incubation times. Simultaneously, the externalised “12,000” vesicles were prepared from aliquots of the growth medium and concentrated (×20). […]

With `COc1cccc2c1C(=O)c1c(O)c3c(c(O)c1C2=O)C[C@@](O)(C(=O)CO)C[C@@H]3O[C@H]1C[C@H](N)[C@H](O)[C@H](C)O1` [Doxorubicine], in the series with Dd cells [1], the “release of the molecule into vesicles” value is listed as “also released into “12,000” vesicles”.

`CCCCCC(=O)c1c(O)c(Cl)c(OC)c(Cl)c1O` [DIF]: the “differentiation of K562 cells” value with Leukemic K562 cells was “differentiate and recover the capacity to synthesize haemoglobin”.

As to `Cc1cc(O)c2c(=O)c3c(O)cc(O)c4c5c(O)cc(O)c6c(=O)c7c(O)cc(C)c8c1c2c(c34)c(c78)c65` [hypericin], in the series with Dd cells [2] (hypericin 25 μM in growth medium), the “toxicity towards Dd cells” value is on record as “without any apparent toxicity”.

With `CCOc1ccc(-c2nc3ccc(-c4nc5ccc(N6CCN(C)CC6)cc5[nH]4)cc3[nH]2)cc1` [HO342, Hoechst 33342], the “cytotoxicity during incubation with Dd cells in the growth medium” value in the series on Dd cells [2] (HO342 10 μg/ml, continuously since initiation of culture) was “absence of cytotoxicity”.
